Entries after “also recorded” stand apart in the source; their conditions may differ.
How the values were obtained:
CHO GFP cells = assay: ERK MAP kinase assay in control CHO GFP cells; type: cell-based, Chinese hamster; settings: serum starved CHO GFP cells, LPC 0.01 μM to 10 μM, 10 minutes
Method: (§1) Further exploration of the cellular response to LPC was undertaken in Chinese hamster ovary (CHO) cells. Stable lines of G2A expressing CHO cells were derived by infection with retroviruses encoding G2A.GFP (MSCV G2A.GFP). We examined ERK MAP kinase activity in control CHO GFP and CHO G2A.GFP cells in response to varying doses of LPC (0.01 μM to 10 μM).
(§2) CHO GFP or CHO G2A.GFP cells were serum starved for 18 hours prior to treatment with LPC for 10 minutes at 37° C. Western blotting was performed to detect activated p44/42 ERK MAP kinase using a specific phospho-ERK antibody (Santa Cruz Biotechnology,).

G2A.GFP fusion receptor = molecular target: T1, G2A.GFP fusion receptor (Mus musculus, UniProt Q9Z282); assay: Internalisation of G2A.GFP in HEK 293 G2A.GFP cells (confocal microscopy); type: cell-based; settings: 2 hours, serum starved HEK 293 G2A.GFP cells
T1 construct: expressed in transfected cells; host or cells: HEK 293 cells infected with amphotropic MSCV G2A.GFP retrovirus
T1 sequence (Q9Z282 1-382): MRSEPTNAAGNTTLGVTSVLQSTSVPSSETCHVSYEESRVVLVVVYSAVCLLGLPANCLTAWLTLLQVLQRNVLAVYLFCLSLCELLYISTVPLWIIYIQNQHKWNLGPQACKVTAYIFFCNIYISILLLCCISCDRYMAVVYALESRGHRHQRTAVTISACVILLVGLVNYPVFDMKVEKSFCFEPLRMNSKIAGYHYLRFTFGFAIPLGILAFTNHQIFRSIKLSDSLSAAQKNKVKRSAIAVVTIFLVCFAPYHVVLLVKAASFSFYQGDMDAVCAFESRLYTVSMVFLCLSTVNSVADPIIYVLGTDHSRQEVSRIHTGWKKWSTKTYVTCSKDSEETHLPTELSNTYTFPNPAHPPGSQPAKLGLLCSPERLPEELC
Method: Agonist dependent receptor internalisation is a feature of GPCRs. G2A.GFP expressing HEK 293 cells (HEK 293 G2A.GFP) were generated by infection with amphotropic MSCV G2A.GFP retroviruses. In serum starved HEK 293 G2A.GFP cells, G2A.GFP is expressed predominantly on the plasma membrane. LPC (0.1 μM), as well as SPC (1 μM), induced internalisation of G2A.GFP in over 90% of cells (FIG. 6). Neither LPA, S-1-P or PAF induced G2A internalisation, which is consistent with LPC acting as a specific ligand for G2A. Treatment of HEK 293 G2A.GFP cells with SPC at low concentrations (0.1 μM) induced receptor internalisation in fewer cells (<50%).
HEK 293 G2A.GFP cells were seeded onto glass coverslips and subsequently serum starved for 16-24 hours prior to treatment with lipids. Two hours following lipid treatment, coverslips were washed with cold PBS and fixed with PBS/4% paraformaldehyde. Subcellular localisation of G2A.GFP was visualised under a confocal fluorescence microscope with a 60× oil immersion lens.

G2A [1] = molecular target: T2, G2A (Mus musculus, UniProt Q9Z282); assay: Calcium assay ([Ca2+]i, Fura-2) in G2A.GFP transfected MCF 10A cells; type: cell-based
T2 construct: expressed in transfected cells; host or cells: MCF 10A (human breast epithelial cells, no endogenous G2A), plasmid pEXV3 G2A.GFP
T2 sequence (Q9Z282 1-382): T1 sequence (Q9Z282 1-382)
Method: (§3) MCF 10A cells were cultured in specialised glass-bottom dishes (Bioptech, Inc., Butler, Pa.) and loaded with Fura-2/AM ([…]; Molecular Probes) at 37° C. for 30 minutes in HEPES buffered saline (pH 7.4) containing 125 mM NaCl, 5 mM KCl, 1.2 mM MgSO4, 11 mM glucose, 1.8 mM CaCl2, 25 mM HEPES, 0.2% BSA. Loaded cells were washed, placed in HEPES buffeted saline without BSA, and incubated for 30 minutes at ambient temperature ensure dye hydrolysis by cytosolic esterases. Using a dual-wavelength spectrofluorometer (RFK-6002, Photon Technology Int'l, So. Brunswick, N.J.) coupled to an inverted fluorescence microscope (Olympus, IX-70, Lake Success, N.Y.), GFP-positive cells were identified using an excitation wavelength of 488 nm, a dichroic 505 nm long-pass and an emitter bandpass of 535 nm (Chroma Technology, Brattleboro, Vt.). [Ca^2+], measurements were performed on individual GFP-positive cells at excitation wavelengths of 340 nm and 380 nm, and an emission wavelength of 510 nm. Prior to data acquisition, background fluorescence (areas without cells) was measured and automatically subtracted from subsequent measurements. Agonists were diluted in HEPES buffered saline and solution changes accomplished by rapidly aspirating the buffer and replacing it with HEPES buffered saline containing the specific agonist. Fura-2 fluorescence signals (340 nm, 380 nm and the 340/380 ratio) originating from individual GFP-positive cells were continuously monitored at a sampling frequency of 25 Hz and collected using a software package from Photon Technology International (Felix™). Conversion of the 340 nm/380 nm ratio value into [Ca^2+]i was estimated by comparing the cellular fluorescence ratio with ratios acquired using Fura-2 (free acid) in buffers containing known Ca^2+ concentrations. [Ca^2+]i was then calculated as described by Grynkiewicz, et al (Grynkiewicz, G, et al, J Biol Chem, 260: pp3440-3450, 1985). All assays were performed in assay buffers containing 1 mM EGTA to exclude measurement of calcium influx.
(§4) To address whether G2A is a lysophospholipid receptor, we examined signalling events in cells ectopically expressing G2A as functional correlates of receptor activation. […] [Ca^2+]i measurements were performed in MCF 10A cells transfected with plasmids encoding green fluorescent protein (GFP) tagged G2A (pEXV3 G2A.GFP) (Kabarowski, J H S, et al, PNAS, 97: pp12109-12114, 2000) or GFP as described (Yan Xu and Derek S. Damron, Methods in Molecular Medicine, 39: Ovarian Cancer: Methods and Protocols, pp611-619, 2000). […] Similarly, dose-dependent responses of G2A.GFP transfected cells to SPC were observed, with an EC50 of approximately 0.4 μM (FIG. 4B). […] Responses to these agonists were not affected by G2A.GFP expression (FIG. 4A, middle and lower panels).

MCF 10A cells = assay: Calcium assay ([Ca2+]i, Fura-2) in parental or pEXV3 GFP transfected MCF 10A cells (control); type: cell-based, human; settings: SPC or LPC up to 10 μM, LPA 1 μM, PAF 0.1 μM, ATP 20 μM
Method: as §3, §4

G2A [2] = molecular target: T2, G2A; assay: ERK MAP kinase assay (phospho-ERK Western blot) in CHO G2A.GFP cells; type: cell-based; settings: serum starved CHO G2A.GFP cells, LPC 0.01 μM to 10 μM, 10 minutes
Method: as §1, §2

In the case of lysophosphatidylcholine [LPC], the “ERK MAP kinase activity in control cells” value (CHO GFP cells) is reported as “did not respond”, the “induction of G2A internalisation” value (G2A.GFP fusion receptor) is reported as “internalisation of G2A.GFP induced by LPC” and the EC50 (G2A [1]; G2A.GFP transfected MCF 10A cells, 1 mM EGTA in buffer, read-out: EC50 of dose-dependent increase in [Ca2+]i) is reported as ~100 nM. For the same substance, the “transient increase in [Ca2+]i” value (G2A [1]; G2A.GFP transfected MCF 10A cells, LPC 0.1 μM, SPC 0.1 μM, LPA 1 μM, PAF 0.1 μM, ATP 20 μM) was “induced a transient increase; also recorded: induce transient [Ca^2+], increases”, the “desensitisation to subsequent stimulation with LPC or SPC (1 μM)” value (G2A [1]; pretreatment 5 minutes with LPC 1 μM or SPC 10 μM (b23 prints SPC 1.0 μM), G2A.GFP-transfected MCF 10A cells) was “induced homologous and heterologous desensitisation” and the “[Ca2+]i response in control cells” value (MCF 10A cells) was “Neither parental or pEXV3 GFP transfected cells responded”. For the same substance, the “ERK MAP kinase activity” value (G2A [2]) was “dose-dependent increases; also recorded: activates ERK MAP kinase”.
